In patent US4783462A, “3(2H)pyridazinone, and anti-allergic agent containing it” (Nissan Chemical Industries Ltd., priority 1985, dated 1988):

Legend:
[1] = tested on: anaphylactic bronchoconstriction in passively sensitized guinea-pig; experiment: Effect on anaphylactic bronchoconstriction in passively sensitized guinea-pig; format: in vivo; details: Table 5-(2), 2 mg/kg i.v., EA 0.1 mg/kg
Protocol: (iii) Effect on anaphylactic bronchoconstriction in passively sensitized guinea-pig
Male guinea-pigs (350-450 g) were passively sensitized with intravenous (i.v.) injection of 0.125 ml rabbit anti-EA (egg albumin) serum (Cappel Laboratories) 1 day preceding the experiment. […] Sensitized guinea-pigs were anaesthetized with intraperitoneal injection of urethane (1.5 g/kg). The right jugular vein was cannulated for the administration of the all agents and trachea was cannulated to record total pulmonary resistance. Guinea-pigs were artificially ventilated by a small animal respirator (Shinano, Model SN-480-7) set at a stroke volume of 5 ml and a rate of 50 breaths per min. […] The increase in air overflow volume was expressed as a percentage of the maximum bronchoconstriction obtained by clamping off the trachea. Following surgical preparation, the animals were pretreated with indomethacin (1.0 mg/kg, 10 min), pyrilamine (2 mg/kg, 6 min) and propranolol (0.1 mg/kg, 5 min) prior to the EA challenge (0.1 or 10 mg/kg). All test compounds, 2 mg/kg in 3% Tween 80 or 3% PEG-400, were administered 1 min before the EA challenge. Inhibition (%) of bronchoconstriction was determined as follows: Inhibition (%)=(1.0%-maximum bronchoconstriction in test/% maximum bronchoconstriction in control)×100. The maximum bronchoconstriction was obtained within 20 min after the EA challenge.
In the Table, the dose of EA was 10 mg/kg, and each compound was dissolved or suspended in 3% Tween 80.
The dose of EA was 0.1 mg/kg.

[2] = tested on: LTC4; experiment: Antagonism in isolated guinea-pig trachea, Test method (i) (Table 3, given as LTC4 antagonism); format: cell-based; details: Cavia porcellus, 5 min, test compound 10^-5 g/ml, given as LTC4 antagonisms
Protocol: (§1) (i) LTC4 and LTD4 antagonisms in guinea-pig trachea
(§2) Antagonisms for LTC4 and LTD4 were determined in isolated guinea-pig trachea prepared as spiral strip. Tracheal preparations were suspended under 1 g tension in 10 ml organ baths and they were incubated for 1 hr prior to use. Contractile responses to LTC4 (2×10^-8 g/ml) and LTD4 (2×10^-8 g/ml) were obtained after the maximal response to histamine (10^-4 M). Test compounds dissolved in 100% dimethyl sulfoxide were added to the organ baths (final concentration of 10^-5 g/ml or 10^-6 g/ml) 5 min prior to LTC4 and LTD4 addition, and then contractile responses to LTC4 and LTD4 were compared with those of control which was obtained from a paired trachea in the absence of test compounds. LTC4 - and LTD4 -induced contractions were expressed as a percentage of the maximal response to histamine. The antagonism was determined as follows:
(§3) Antagonism (%)=(1.0-% contraction in test/% contraction in […]

[3] = tested on: LTD4; experiment: LTD4 antagonism in isolated guinea-pig trachea with indomethacin, Test method (ii) (Table 4); format: cell-based; details: Cavia porcellus, 0.5 h, LTD4 2×10^-8 g/ml, test compound 10^-6 g/ml, 30 min prior, 5 μmol indomethacin
Protocol: (ii) LTD4 antagonism in guinea-pig trachea
Antagonism for LTD4 was determined in isolated guinea-pig trachea prepared as spiral strip. Tracheal preparations were suspended under 1 g tension in 10 ml organ baths containing 5 μmol of indomethacin and they were incuated for 1 hr prior to use. Contractile responses to LTD4 (2×10^-8 g/ml) were obtained after the maximal response to histamine (10^-4 M). Test compounds dissolved in 100% dimethyl sulfoxide were added to the organ baths (final concentration of 10^-6 g/ml) 30 min prior to LTD4 addition, and then contractile responses to LTD4 were compared with those of control which was obtained from a paired trachea in the absence of test compounds. LTD4 -induced contractions were expressed as a percentage of the maximal response to histamine. The antagonism was determined as follows:
as §3

[4] = tested on: LTD4; experiment: LTD4 antagonism in isolated guinea-pig trachea, Test method (i) (Table 4, values with asterisk); format: cell-based; details: Cavia porcellus, 5 min, test compound 10^-6 g/ml, 5 min prior
Protocol: as §1, §2, §3

Row | Structure (SMILES) | inhibition at 10 µg/mL [2] [%] | inhibition at 1 µg/mL [3] [%] | inhibition at 1 µg/mL [4] [%] | also measured
1 | CCCc1cc(C(=O)OC)ccc1OCCCOc1cnn(C(C)C)c(=O)c1Cl [compound 85] | 78 |  |  | Inhibition (%) ([1]; Tween 80): 23%
2 | CCc1cc(C(N)=O)ccc1OCCCNc1cnn(C(C)C)c(=O)c1Cl [compound 102] | 93 |  |  | Inhibition (%) ([1]; PEG-400): 73%
3 | CCn1ncc(NCCCOc2ccc(C(=O)OC)cc2C(C)C)c(Cl)c1=O [compound 103] | 93 |  |  | Inhibition (%) ([1]; PEG-400): 69%
4 | CCCc1cc(OC)ccc1OCCCNc1cnn(C(C)C)c(=O)c1Cl [compound 105] | 89 | 52 |  | 
5 | CCCc1cc(O)ccc1OCCCNc1cnn(C(C)C)c(=O)c1Cl [compound 109] | 99 | 69 |  | 
6 | CCCCc1cc(C(=O)OC)ccc1OCCCNc1cnn(CC)c(=O)c1Cl [compound 111] | 87 | 79 |  | 
7 | CCCCc1cc(C(=O)O)ccc1OCCCNc1cnn(CC)c(=O)c1Cl [compound 113] | 100 | 54 |  | 
8 | CCCCc1cc(C(N)=O)ccc1OCCCNc1cnn(CC)c(=O)c1Cl [compound 115] | 94 | 61 |  | 
9 | CCCc1cc(C#N)ccc1OCCCNc1cnn(C(C)C)c(=O)c1Br [compound 120] |  |  | 82 | 
10 | CCCc1cc(C(N)=O)ccc1OCCCNc1cnn(CC)c(=O)c1Br [compound 121] |  |  | 43 | 
11 | C=CCc1cc(C#N)ccc1OCCCNc1cnn(C(C)C)c(=O)c1Br [compound 123] |  |  | 65 | 
12 | CCCc1cc(C#N)ccc1OCCCNc1cnn(C(C)(C)C)c(=O)c1CCC [compound 128] |  |  | 17 | 
13 | CCCc1cc(C(=O)OC)ccc1OCCCNc1cn[nH]c(=O)c1CCC [compound 131] |  |  | 33 | 
14 | CCCc1cc(C(=O)O)ccc1OCCCNc1cn[nH]c(=O)c1CCC [compound 132] |  |  | 26 | 
15 | CCCc1cc(C(=O)OC)ccc1OCCCNc1cnn(CC)c(=O)c1CCC [compound 133] |  |  | 27 | 
16 | CCCc1cc(C(=O)OC)ccc1OCC(CNc1cnn(C(C)C)c(=O)c1Cl)OC (stereo not shown) [compound 162] | 81 |  |  | Inhibition (%) ([1]; Tween 80): 49%
17 | CCCc1cc(C(=O)O)ccc1OCC(CNc1cnn(C(C)C)c(=O)c1Cl)OC (stereo not shown) [compound 163] | 74 |  |  | Inhibition (%) ([1]; Tween 80): 32%
18 | CCCc1cc(C(=O)OC)ccc1OCC(CN(C)c1cnn(C(C)C)c(=O)c1Cl)OC (stereo not shown) [compound 164] | 71 |  |  | Inhibition (%) ([1]; Tween 80): 40%
19 | CCCCCc1cc(C(=O)O)ccc1OCCCNc1cnn(CC)c(=O)c1Br [compound 205] |  | 96 |  | 
20 | CCC(C)c1cc(C(=O)O)ccc1OCCCNc1cnn(CC)c(=O)c1Br (stereo not shown) [compound 218] |  | 84 |  | 
